In US9416103B2, “Use of the aminoalkylindole JWH-073-M4 and related compounds as neutral CB1 receptor antagonists for the treatment of alcoholism, drug abuse, obesity, and obesity-related diseases” (The Board of Trustees of the University of Arkansas, priority 2012, dated 2016):
Where two headings read alike, the source gives them in different places. Marks after values point to notes of the source that are not given here.

Assays:
CHO-WT cells = test: AC-inhibition assay in CHO-WT cells not transfected with CB2Rs; assay type: cell-based, Chinese hamster
Experimental: To examine if the observed agonist activity is due to activation of CB2Rs, an additional AC-inhibition assay was performed.

mice [1] = test: Thermoregulation assay, antagonism of JWH-073-induced hypothermia; assay type: in vivo, mouse; conditions: 30 minute pretreatment before JWH-073 10 mg/kg
Text: Our hypothesis is that a dual activity CB1R antagonist/CB2R agonist will reduce the reinforcing effects of EtOH as well as reduce the conditioned rewarding effects of ethanol in mice. The compounds selected will firstly be put through a thermoregulation assay as a screen for potential cannabinoid receptor activity. Thermoregulation will be used as a screen because of the well-established hypothermic effects seen with the use of cannabinoid ligands. This assay was done using glass radiotelemetry probes that were surgically implanted in each mouse, which monitor core temperature in response to drug administration. […] This screen does indeed confirm the in vivo cannabinoid activity of TV-5-249 and TV-6-41 and it also illustrates the evident antagonist effects against agonist induced hypothermia.

hCB2Rs [2] = target: T1, hCB2Rs (Homo sapiens (Human), UniProt P34972); test: Competition receptor binding with [3H]CP-55,940 in CHO-hCB2 cell homogenates; conditions: Table 3; read-out: hCB2R Ki
Experimental: (§1) Competition receptor binding was performed as previously described. […] Reactions were terminated by rapid vacuum filtration through Whatman GF/B glass fiber filters, followed by five washes with ice-cold buffer (50 mM Tris, 0.05% BSA). Filters were immediately placed into 7 mL scintillation vials to which 4 mL of ScintiVerse™ BD Cocktail scintillation fluid (Fisher Scientific, Fair Lawn, N.J.) was added. Bound radioactivity was determined after overnight incubation at room temperature and shaking, by liquid scintillation spectrophotometry with an efficiency of 44% (Tri Carb 2100 TR Liquid Scintillation Analyzer, Packard Instrument Company, Meriden, Conn.). Specific binding is expressed as total binding minus non-specific binding, and is graphed for each data point as a percentage of specific binding occurring in the absence of any competitor.
(§2) The prepared analogues were subjected to in vitro pharmacological testing, which included receptor binding and functional assays at both cannabinoid receptors. Initial receptor binding screens at both CB1Rs and CB2Rs were conducted for the analogues prepared.

CB1Rs [3] = target: T2, CB1Rs (Mus musculus (Mouse), UniProt P47746); test: Competition receptor binding with [3H]CP-55,940 in mouse brain homogenates; conditions: Table 3; read-out: mCB1R Ki
Experimental: (§3) Mouse brain homogenates for in vitro assays were prepared as previously described. Briefly, whole brains were harvested from B6SJL mice, snap-frozen in liquid nitrogen and stored at −80° C. On the day membrane homogenates were to be prepared, brains were thawed on ice, then pooled in a 40 mL Dounce glass homogenizer and suspended in 5 volumes of ice cold homogenization buffer (50 mM HEPES, pH 7.4, 3 mM MgCl2, and 1 mM EGTA). Brains were then subjected to 10 complete strokes with an A pestle, followed by centrifugation at 40,000×g for 10 minutes at +4° C. Resulting supernatants were discarded, and the pellet was resuspended, homogenized and centrifuged similarly twice more, with supernatants being discarded. For the final resuspension and homogenization with a B pestle, ice-cold 50 mM HEPES was used in place of homogenization buffer, and homogenates were aliquoted and stored at −80° C. Protein concentrations of homogenates were determined using the BCA™ Protein Assay (Thermo Scientific, Rockford, Ill.).
as §1
(§4) Curve fitting and statistical analyses for in vitro experiments were performed using GraphPad Prism™ version 5.0b (GraphPad Software Inc., San Diego, Calif.). The Cheng-Prusoff equation [45] was used to convert the experimental IC50 values obtained from competition receptor binding experiments to Ki values, a quantitative measure of receptor affinity. Non-linear regression for one-site competition was used to determine the IC50 for competition receptor binding. Curve fitting of concentration-effect curves via non-linear regression was also employed to determine the EC50 (a measure of potency) and Emax (a measure of efficacy) for [^35S]GTPγS concentration-effects experiments. […] Data are expressed as mean±SEM. The Student's t-test was used to determine statistical significance (P<0.05) between two groups, while a one-way ANOVA, followed by Tukey's Multiple Comparison post-hoc test, was used to determine statistical significance (P<0.05) between three or more groups.
as §2

hCB2Rs [4] = target: T1, hCB2Rs; test: Inhibition of forskolin-stimulated cAMP production (adenylyl cyclase) in intact CHO-hCB2R cells; assay type: cell-based; conditions: for inhibition at 10 µM: CHO cell transfected with hCB2 receptors, read-out: AC-inhibition at CB2Rs; for inhibition of AC-activity at CB2Rs, concentration-effect: CHO-hCB2 cells
Experimental: Adenylyl cyclases are a family of membrane-bound enzymes that catalyze the intracellular production of the second messenger cAMP from ATP. Adenylyl cyclase activity is modulated by activated G-proteins: Gs-proteins stimulate activity, while Gi/o-proteins are inhibitory. Thus, agonists of G-protein coupled receptors (GPCRs) coupled to Gi/o-proteins, such as hCB2Rs, decrease cAMP production due to inhibition of adenylyl cyclase activity. In this assay, intact CHO-hCB2R cells are preincubated with [^3H]-adenine and treated with forskolin (10 or 30 μM) to stimulate adenylyl cyclase activity.
A functional assay screen for the inhibition of adenylate cyclase (AC) activity was chosen as the subsequent assay. […] Reaching full-receptor occupancy, which is predicted to produce maximal efficacy, is desirable at 10 μM concentration of all the compounds was used.

[5] = target: CB1Rs endogenously expressed in Neuro2A cells (Mus musculus (Mouse), UniProt P47746); test: Adenylyl cyclase (AC) inhibition via CB1Rs endogenously expressed in Neuro2A cells; assay type: cell-based; conditions: for antagonism of AC-inhibition produced by the CB1R full agonist JWH-073: 1 μM concentration; for inhibition at 10 µM: N2a
mice [6] = test: Alcohol conditioned place preference (CPP); assay type: in vivo, mouse; conditions: 10 mg/kg given 1 hour before EtOH pairings
Experimental: Alcohol conditioned place preference assay was done with compounds TV-6-41 and rimonabant. This assay tests the effects of these compounds on conditioned rewarding effects of EtOH. Training of mice involved 4 daily injections of […] EtOH paired with location to one of two chambers (four pairings) after which an increase in time spent in the EtOH-paired chamber was observed, and this points to the development of conditioned place preference (FIG. 24, ‘Pre” bar vs. “Post” bar). […] With the CPP training underway, mice were exposed to succeeding conditioning trials either with 10 mg/kg TV-6-41 or […] 1 hour before EtOH pairings. […] During these studies it was observed that 4 pairings of […] EtOH elicited a CPP of about 400 sec (FIG. 25, “No inj” bar).

mice [7] = test: Oral EtOH self administration, 2-bottle choice procedure; conditions: daily treatment 10 mg/kg
Text: These assays are important models for the study of alcoholism because they model several aspects of this condition including voluntary EtOH drinking (SA), conditioned EtOH reward (CPP), abstinence and relapse, which represent extinction and reinstatement of CPP, respectively. Effects of TV-5-249 on voluntary 10% EtOH drinking were studied using a 2-bottle choice procedure described by Keane and coworkers as wells as by Cunningham and coworkers. […] After 5 such observations, which represents a two week washout period, daily treatments with 10 mg/kg TV-5-249 were initiated. […] The last treatment was an everyday injection of vehicle, which is 8% Tween/92% sterile water solution and it represents the solution in which both drugs were dissolved in prior to injections.

CB1Rs [8] = target: T2, CB1Rs; test: [35S]GTPγS binding assay (G-protein activation) in mouse brain homogenates; assay type: biochemical
Experimental: as §3
[^35S]GTPγS binding was performed as previously described. Briefly, 25 μg of mouse brain homogenates were incubated for 30 minutes at 30° C. with 0.1 nM [^35S]GTPγS, 10 μM GDP, and either cannabinoid+/−antagonist, 10 μM unlabeled GTPγS (non-specific binding) or vehicle (total binding), in triplicate, in a volume of 1 mL of buffer containing 20 mM HEPES, 10 mM MgCl2, 100 mM NaCl, 20 units/L adenosine deaminase, 0.05% BSA and the appropriate DMSO (0.1%) and/or ethanol (<0.2%) vehicle. Assay buffer containing 100 mM KCl, instead of 100 mM NaCl, was used to increase basal G-protein activity in experiments examining inverse agonism. Reactions were terminated by quick vacuum filtration through Whatman GF/B glass fiber filters, followed by five washes with ice-cold buffer (20 mM HEPES, 0.05% BSA). Filters were immediately placed into 7 mL scintillation vials to which 4 mL of ScintiVerse™ BD Cocktail scintillation fluid was added. Bound radioactivity was determined after overnight incubation at room temperature and shaking by liquid scintillation spectrophotometry with an efficiency of 93% (Tri Carb 2100 TR Liquid Scintillation Analyzer, Packard Instrument Company, Meriden, Conn.). Specific binding is expressed as picomoles of [^35S]GTPγS bound per mg of protein.
as §4

CB1Rs [9] = target: T2, CB1Rs; conditions: mouse brain homogenates; values previously reported [39]; read-out: [3H]CP binding Ki; cited from earlier work

CCCCn1cc(-c2ccc3ccccc3c2)c2cccc(OC)c21 [TV-6-41, 1-butyl-7-methoxy-3-(naphthalen-2-yl)-1H-indole]
AC-activity in CHO-WT cells not transfected with CB2Rs (CHO-WT cells): neither TV-5-249 nor TV-6-41 significantly modify AC-activity | effect on JWH-073-induced hypothermia (mice [1]): significantly decreased the hypothermic effects of JWH-073 | Ki (hCB2Rs [2]): 26.5 nM | Ki (CB1Rs [3]): 37.3 ± 11.8 nM | inhibition at 10 µM (hCB2Rs [4]): 20.8% | inhibition of AC-activity at CB2Rs, concentration-effect (hCB2Rs [4]): 40-50% | antagonism of AC-inhibition produced by the CB1R full agonist JWH-073 [5]: antagonize AC inhibition | inhibition at 10 µM ([5]; 10 μM, Neuro2A cells): 16% | inhibition of AC-activity via CB1Rs, concentration-effect ([5]; Neuro2A cells): very little inhibition of AC-activity | EtOH conditioned place preference (mice [6]): conditioned rewarding effects of EtOH were blocked

Cc1c(C(=O)NN2CCCCC2)nn(-c2ccc(Cl)cc2Cl)c1-c1ccc(Cl)cc1 [rimonabant, 5-(4-Chlorophenyl)-1-(2,4-dichloro-phenyl)-4-methyl-N-(piperidin-1-yl)-1H-pyrazole-3-carboxamide, reference compound]
EtOH preference (10% EtOH, 2-bottle choice) (mice [7]): decreases EtOH preference | body weight (mice [7]): does indeed have an effect on body weight | total fluid consumption (mice [7]): without having any effect on total fluid intake | EtOH conditioned place preference (mice [6]): did not elicit a significant preference for the EtOH-paired chamber

CCCCn1cc(Cc2cccc3ccccc23)c2cccc(OC)c21 [TV-5-249, 1-butyl-7-methoxy-3-(naphthalen-1-ylmethyl)-1H-indole]
EtOH preference (10% EtOH, 2-bottle choice) (mice [7]): reduced EtOH preference | body weight (mice [7]): did not decrease body weight | total fluid consumption (mice [7]): without affecting total fluid consumption | AC-activity in CHO-WT cells not transfected with CB2Rs (CHO-WT cells): neither TV-5-249 nor TV-6-41 significantly modify AC-activity | effect on JWH-073-induced hypothermia (mice [1]): significantly decreased the hypothermic effects of JWH-073 | Ki (hCB2Rs [2]): 10.9 nM | Ki (CB1Rs [3]): 15.4 ± 2.2 nM | inhibition at 10 µM (hCB2Rs [4]): 33.2% | inhibition of AC-activity at CB2Rs, concentration-effect (hCB2Rs [4]): 40-50% | antagonism of AC-inhibition produced by the CB1R full agonist JWH-073 [5]: antagonize AC inhibition | inhibition at 10 µM ([5]; 10 μM, Neuro2A cells): 18% | inhibition of AC-activity via CB1Rs, concentration-effect ([5]; Neuro2A cells): very little inhibition of AC-activity

CCCCCCC(C)(C)c1ccc(C2CC(O)CC[C@H]2CCCO)c(O)c1 (some centres unmarked) [CP-55,940]
[35S]GTPγS Binding, 100 nM (CB1Rs [8]; 100 nM): 0.20 ± 0.04 pmol/mg | [35S]GTPγS Binding, +O-2050 (1 μM) (CB1Rs [8]; 1 μM cannabinoid (100 nM for CP-55,940) co-incubated with CB1R antagonist O-2050 1 μM): 0.06 ± 0.03 pmol/mg | [35S]GTPγS Binding Emax (CB1Rs [8]; concentration-effect, mouse brain homogenates): 0.26 ± 0.01^a pmole/mg | EC50 (CB1Rs [8]; concentration-effect, mouse brain homogenates, read-out: [35S]GTPγS Binding EC50): 7.5 ± 1.8 nM | Ki (CB1Rs [9]): 0.26 ± 0.1 nM | AC-inhibition at CB1Rs ([5]; 10 μM, Neuro2A cells): 45%
